Assay results published in PubChem BioAssay (NCI).
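Growth conditions: 96-well plates. Treatment: test compound, 48 hours, 5 concentrations. Analysis: linear interpolation between bracketing concentrations; unreached endpoints set to highest concentration. At the GI50, growth is halved. The concentration for full growth arrest is given as TGI.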

What was measured:
Assay in all cases: NCI anticancer screen, dose series, 48 h
NCI-H226 lung = test system: NCI-H226 lung
MOLT-4 leukemia = test system: MOLT-4 leukemia
RPMI-8226 leukemia = test system: RPMI-8226 leukemia
SN12C renal = test system: SN12C renal
KM12 colon = test system: KM12 colon
NCI-H23 lung = test system: NCI-H23 lung
HCT-15 colon = test system: HCT-15 colon
TK-10 renal = test system: TK-10 renal
NCI-H522 lung = test system: NCI-H522 lung
UACC-257 melanoma = test system: UACC-257 melanoma

Row | Compound | GI50 (NCI-H226 lung) | TGI (NCI-H226 lung) | GI50 (MOLT-4 leukemia) | TGI (MOLT-4 leukemia) | GI50 (RPMI-8226 leukemia) | TGI (RPMI-8226 leukemia) | GI50 (SN12C renal) | TGI (SN12C renal) | GI50 (KM12 colon) | TGI (KM12 colon) | GI50 (NCI-H23 lung) | TGI (NCI-H23 lung) | GI50 (HCT-15 colon) | TGI (HCT-15 colon) | GI50 (TK-10 renal) | TGI (TK-10 renal) | GI50 (NCI-H522 lung) | TGI (NCI-H522 lung) | GI50 (UACC-257 melanoma) | TGI (UACC-257 melanoma)
1 | CCOC(=O)Nc1ccc(C(=O)/C=C/c2ccccc2)cc1 | 19.8 µM | 68.6 µM | 27.9 µM | > 100 µM | 3.76 µM | 22.5 µM | 24.4 µM | > 100 µM | 4.8 µM | 17.6 µM | 23.7 µM | 61.1 µM | 27.2 µM | > 100 µM | 28.9 µM | 86.5 µM | 20.9 µM | 79.8 µM | 55 µM | > 100 µM
2 | N=C1N=C(N)S/C1=C\c1ccc2ncccc2c1 | > 25 µM | > 25 µM | > 25 µM | > 25 µM | > 25 µM | > 25 µM | > 25 µM | > 25 µM | > 25 µM | > 25 µM | > 25 µM | > 25 µM | > 25 µM | > 25 µM | > 25 µM | > 25 µM | > 25 µM | > 25 µM | > 25 µM | > 25 µM
3 | C[C@@H]1CC[C@@H]2[C@@H]1[C@H](OC(=O)c1ccc3ccccc3c1)[C@]1(C3CCCCC3)C[C@@H](OC(=O)CO)[C@@]2(C)O1 | 11.6 µM | 26.2 µM | 5.16 µM | 21.3 µM | 5.03 µM | 22.8 µM | 0.0525 µM | 12.6 µM | 11.1 µM | 26.5 µM | 14.3 µM | 33.2 µM | 7.93 µM | 22.4 µM | 14.5 µM | 31.1 µM | 10.3 µM | 24.1 µM | 12.9 µM | 26.3 µM
4 | Cc1ccc(S(=O)(=O)NNC(C[N+](=O)[O-])c2ccccc2)cc1 (configuration not stated) |  | 90 µM |  | > 100 µM |  | > 100 µM |  | > 100 µM |  | > 100 µM |  | > 100 µM |  | 39.5 µM |  | 58.8 µM |  | 44.1 µM |  | 37.5 µM
5 | O=C(Nc1ccccc1[N+](=O)[O-])C(=O)C(C(=O)c1ccccc1-c1ccccc1)C1OC(=O)c2ccccc21 (configuration not stated) |  | 21.3 µM |  | 85.4 µM |  | 78.3 µM |  | 30.3 µM |  | 30.6 µM |  | 33.6 µM |  | 30 µM |  | 47.1 µM |  | 25.3 µM |  | 33 µM
6 | CC(C)c1ccc(/C=N/N=C(N)N)cc1 | 12.2 µM | 26.3 µM | 5.17 µM | 32.6 µM | 3.6 µM | 16.4 µM | 6.35 µM | 20.4 µM | 3.3 µM | 11.6 µM | 3.96 µM | 19.7 µM | 4.19 µM | 16.8 µM | 12.9 µM | 26.4 µM | 3.22 µM | 12.9 µM | 8.74 µM | 24.1 µM
7 | C[n+]1cc2cc3c(cc2c2ccccc21)OCO3 | 2.4 µM | 32.2 µM | 4.02 µM | > 100 µM | 3.39 µM | 36.4 µM | 2.31 µM | 11.1 µM | 1.22 µM | 10.1 µM | 2.37 µM | 13.6 µM | 70.2 µM | > 100 µM | 8.33 µM | 61.4 µM | 2.17 µM | 6.23 µM | 3.85 µM | 14 µM
8 | COc1ccc(C2CC(c3cccc(OC)c3)=NN2C(=O)c2cc(OC)c(OC)c(OC)c2)cc1 (configuration not stated) |  | > 100 µM | 2.14 µM | > 100 µM | 1.05 µM | 4.35 µM | 5.03 µM | > 100 µM | 0.717 µM | > 100 µM | 2.76 µM | > 100 µM | 1.07 µM | > 100 µM |  | > 100 µM | 2.66 µM | > 22.1 µM | 83.8 µM | > 100 µM
9 | C=CCN(N=O)C(=O)N(CCCCC(NC(C)=O)C(=O)NCc1ccccc1)Cc1ccccc1 (configuration not stated) |  | 60.7 µM |  | 45.4 µM |  | 41.9 µM |  | > 100 µM |  | > 100 µM |  | > 100 µM |  | > 100 µM |  | > 100 µM |  | 39.9 µM |  | > 100 µM
10 | OCC#CCCCCOCC#Cc1ccccc1C#CCOCCCCC#CCO | 23.7 µM | 59 µM | 14.8 µM | > 100 µM | 29.3 µM | 87.8 µM | 22.3 µM | 39 µM | 19.6 µM | 40.5 µM | 23 µM | 48.8 µM | 16.3 µM | 34.7 µM | 11.9 µM | 41.6 µM | 71.3 µM | > 100 µM | 37.3 µM | > 100 µM
11 | NC(=S)N/N=C/c1ccc(OC(=O)COc2ccccc2)cn1 | 20.3 µM | 64 µM | 2.53 µM | > 100 µM | 7.47 µM | > 100 µM | 5.3 µM | > 100 µM | 3.16 µM | > 100 µM | 4.49 µM | > 100 µM | 20.2 µM | > 100 µM | > 100 µM | > 100 µM | 8.6 µM | 57.2 µM | 14.7 µM | 88.9 µM
12 | O=C(Nc1nc(-c2ccccc2)cs1)c1cc(O)c(O)c(O)c1 | 8.08 µM | 54.8 µM | 1.57 µM | 19.4 µM | 2.99 µM | 22.1 µM | 3.19 µM | 29.9 µM | 8.02 µM | 26.9 µM | 4.36 µM | 51.5 µM | 3.14 µM | > 100 µM | 3.62 µM | 59.4 µM | 0.337 µM | 1.23 µM | 7.84 µM | 52.1 µM
13 | N#CSCC1CC(O)(c2ccccc2)CC(c2ccc(Cl)cc2)O1 (configuration not stated) | 5.79 µM | 35.6 µM | 1.29 µM | 5 µM | 1.26 µM | 5.39 µM | 1.81 µM | 3.77 µM | 1.77 µM | 3.36 µM | 2.41 µM | 6.53 µM | 2.4 µM | 8.05 µM | 2.13 µM | 4.33 µM | 1.36 µM | 2.83 µM | 3.29 µM | 9.32 µM
14 | COc1cc2oc(-c3cccc(C(=O)Nc4ccc(C)cc4)c3)cc(=O)c2c(OC)c1OC | 6.65 µM | > 100 µM | 5.8 µM | > 100 µM | 0.374 µM | 3.54 µM | 1.91 µM | > 100 µM | 3.66 µM | > 100 µM | 4.43 µM | 51.4 µM | 1.96 µM | > 100 µM | 6.89 µM | > 100 µM | 2.67 µM | 9.31 µM | 1.92 µM | 4.5 µM
15 | C=C1[C@@H](O)C[C@H]2C(C)(C)C[C@H](Cl)C[C@]2(C)[C@H]1C[C@H](O)[C@H]1CC(=O)NC1=O | 0.0218 µM | 0.19 µM | < 0.01 µM |  | 0.0207 µM | 0.0805 µM | < 0.01 µM | 0.108 µM | < 0.012 µM | 0.441 µM | 0.0193 µM | 0.15 µM | 0.0255 µM | 0.596 µM | 0.0253 µM | 0.151 µM | < 0.01 µM | 0.0293 µM | 0.0193 µM | 0.122 µM
16 | COc1ccc2c(c1)C(=O)c1c-2n(CCCN=[N+]=[N-])c(=O)c2cc(N)ccc12 | > 100 µM | > 100 µM | > 100 µM | > 100 µM | > 100 µM | > 100 µM | > 100 µM | > 100 µM | 53.6 µM | > 100 µM | > 100 µM | > 100 µM | > 100 µM | > 100 µM | > 100 µM | > 100 µM | > 100 µM | > 100 µM | > 100 µM | > 100 µM
17 | Cc1nnc2n1N=C(c1ccc(-c3ccc([N+](=O)[O-])cc3)o1)CS2 |  | > 100 µM |  | > 100 µM |  | > 100 µM |  | > 100 µM |  | > 100 µM |  | > 100 µM |  | > 100 µM |  | > 100 µM |  | > 100 µM |  | > 100 µM
18 | Cc1ccc(NC(=O)N2CCCCC2)cc1[N+](=O)[O-] | > 100 µM | > 100 µM | > 100 µM | > 100 µM | 90.1 µM | > 100 µM | > 100 µM | > 100 µM | > 100 µM | > 100 µM | > 100 µM | > 100 µM | > 100 µM | > 100 µM | > 100 µM | > 100 µM | 87.1 µM | > 100 µM | > 100 µM | > 100 µM
19 | Cn1ccc2c3c(=O)cc[nH]c3ccc21 | > 100 µM | > 100 µM | > 100 µM | > 100 µM | > 100 µM | > 100 µM | > 100 µM | > 100 µM | > 100 µM | > 100 µM | > 100 µM | > 100 µM | > 100 µM | > 100 µM | > 100 µM | > 100 µM | > 100 µM | > 100 µM | > 100 µM | > 100 µM
20 | CC(=O)N1N=C(c2ccc(Nc3nc(Nc4ccc(F)cc4)nc(Nc4ccc(Cl)cc4)n3)cc2)CC1c1ccc(N(C)C)cc1 (configuration not stated) | 4.91 µM | 28 µM | 4.2 µM | 30.9 µM | 4.15 µM | > 100 µM | 6.1 µM | 33.3 µM | 6.02 µM | 20.9 µM | 2.96 µM | 16.1 µM | 2.64 µM | 30.5 µM | 8.59 µM | 31 µM | 3.79 µM | > 58.3 µM | 7.67 µM | 26.1 µM
21 | Cc1[nH]c(=O)nc(N/N=C/c2ccc(Cl)cc2)c1C(=O)Nc1ccc(Cl)cc1 |  | > 100 µM |  | > 91.9 µM |  | > 80.2 µM |  | > 100 µM |  | > 100 µM |  | > 93.1 µM |  | > 100 µM |  | 56.9 µM |  | 64.1 µM |  | > 94.6 µM
22 | O=C1c2ccccc2C(=O)c2sc(Nc3ccc(Cl)cc3)nc21 |  | 15.3 µM |  | 3.75 µM |  | 4.73 µM |  | 3.56 µM |  | 5.03 µM |  | 2.81 µM |  | 3.8 µM |  | 14.6 µM |  | 3.28 µM |  | 3.28 µM
